The results in this text go back to article PMC12040169 (PLOS Biology, 2025).

The nature of the series: in vitro. The settings on record: human, hela cells, % viability.
Turning to `O=C(C1CCCC1)N1CCCCC1c1n[nH]cc1-c1ccncc1` (stereo not shown) [CBK283427], the viability (in general, a read-out of living cells in per cent, often relative to untreated cells) at 28.5 h, 10 µM amounted to 90.4%.
For the compound `O=C(c1ccccc1F)N1CCCC1c1n[nH]cc1-c1ccncc1` (stereo not shown) [CBK283428], the viability at 28.5 h, 10 µM was 87.7%.
The same measure for `CC(C)(C)CC(=O)N1CCCC1c1n[nH]cc1-c1ccncc1` (stereo not shown) [CBK283430]: 88.5%; for `O=C(C1CCCCC1)N1CCCC1c1n[nH]cc1-c1ccncc1` (stereo not shown) [CBK283434]: 87.2%; for `O=C(CCc1ccccc1)N1CCCC1c1n[nH]cc1-c1ccncc1` (stereo not shown) [CBK283436]: 91.4%.
To `O=C(c1cccc(F)c1)N1CCCC1c1n[nH]cc1-c1ccncc1` (stereo not shown) [CBK283437] belongs 93.2%.
To `CC(C)C(=O)N1C[C@H]2CCc3nnc(-c4ccccc4)n3[C@H]2C1` [CBK283438] belongs 88%.
As to `CCC(CC)C(=O)N1C[C@H]2CCc3nnc(-c4ccccc4)n3[C@H]2C1` [CBK283439], the viability at 28.5 h, 10 µM was found to be 86.7%.
The same measure for `CC(=O)Nc1ccc(Oc2cc(C)nc(C3CCCNC3)c2)cc1` (stereo not shown) [CBK283443]: 88.1%.
The same measure for `Cc1cccc(CC(=O)N2CCCC2c2n[nH]cc2-c2ccncc2)c1` (stereo not shown) [CBK283447]: 90.7%; for `COCc1ccc(C(=O)N2CCC(c3cc4cnccc4[nH]3)CC2)cc1` [CBK283448]: 99.3%; for `COc1ccc(CC(=O)N2CCC(c3cc4cnccc4[nH]3)CC2)cc1` [CBK283451]: 87.2%.
To `O=C(Cc1ccc(F)cc1)N1CCC(c2cc3cnccc3[nH]2)CC1` [CBK283454] belongs 85.7%.
For `COc1cccc(CC(=O)N2CCC[C@@H](N)[C@@H]2c2ccccc2F)c1` [CBK283455], the viability at 28.5 h, 10 µM stood at 84.5%.
Turning to `COc1ccc(CC(=O)N2CCC[C@@H](N)[C@@H]2c2ccccc2F)cc1` [CBK283456], the viability at 28.5 h, 10 µM was 102%.
To `COc1cccc(C(=O)N2CCC[C@@H](N)[C@@H]2c2ccccc2F)c1` [CBK283457] belongs 88.1%.
The same measure for `COc1c(C)cccc1C(=O)N1CCC(c2cc3cnccc3[nH]2)CC1` [CBK283460]: 89.9%; for `CC(C)(C)OC(=O)N1CCC[C@]2(CCC(=O)N2)[C@H]1c1cccc(F)c1` [CBK283463]: 96.7%.
The same measure for `Cc1csc(C(=O)N2CCC(c3cc(O)cc(C)n3)CC2)c1` [CBK283466]: 89%; for `CC(=O)Nc1ccc(Oc2cc(C)nc(C3CCNCC3)c2)cc1` [CBK283468]: 86.5%; for `CN(C)Cc1cc(-c2ccc(CNC(=O)C3CC3)cc2)nn1C` [CBK283470]: 80.5%.
On to `CC(=O)NCCn1nc(-c2ccccc2F)cc1CN(C)C` [CBK283473], for which the viability at 28.5 h, 10 µM turned out to be 95.7%.
The same measure for `CCCC(=O)NC[C@H]1CC[C@H](c2ccnc3cc(C)nn32)CC1` [CBK283474]: 102%.
The same measure for `Cc1cc2nccc([C@H]3CC[C@H](CNC(=O)C(C)C)CC3)n2n1` [CBK283475]: 94.9%; for `CC(C)CN1C[C@H]2N(C)C(=O)c3ccccc3C(=O)[C@@]2(C)C1` [CBK283477]: 86.6%.
For `CCN1C(=O)c2ccccc2C(=O)[C@@]2(C)CN(C)C[C@@H]12` [CBK283478], the viability at 28.5 h, 10 µM turned out to be 88.3%.
The same measure for `CCN1C(=O)c2ccccc2C(=O)[C@@]2(C)CN(C(C)C)C[C@@H]12` [CBK283480]: 109%; for `CN1C(=O)c2ccccc2C(=O)[C@@]2(C)CN(CC(C)(C)C)C[C@@H]12` [CBK283481]: 93.8%; for `O=C(C1CCCO1)N1CCC(c2ccc(F)cc2)CC1` (stereo not shown) [CBK283484]: 81.4%.
The same measure for `O=C1CC2(CCN(C(=O)C3CCCC3)CC2)Oc2ccccc21` [CBK283485]: 94.9%.
The same measure for `CCC(=O)N1CCC2(CC1)Nc1ccccc1-n1cccc12` [CBK283488]: 108%.
